According to article PMC2580802 (Cell, 2008):
In brackets after ≈: the same amount, converted by molar mass. Like-named read-outs stand apart in the source and are kept apart here.

Columns and labels:
[1] = test system: E. coli with wild-type RNAP β′ and wild-type RNAP β; assay: microbe, parasite or virus in culture; format: cell-based; details: Escherichia coli
[2] = test system: E. coli mutants with single substitutions in RNAP β′ or β subunit; format: cell-based
[3] = biological target: T1, wild-type RNAP (Escherichia coli, UniProt P0A8T7+P0A8V2)
[4] = test system: Escherichia coli DH21tolC; details: ref Irschik et al., 1995; J.M. and R.H.E., unpublished; cited from earlier work
[5] = test system: E. coli DH21f2tolC; format: cell-based; details: assessed with E. coli DH21f2tolC; J.M. and R.H.E., unpublished
[6] = test system: bacterial RNAP; details: read-out: IC50, inhibition of bacterial RNAP; cited from earlier work
[7] = biological target: T1, wild-type RNAP; remark: listed apart in the source
[8] = test system: Staphylococcus aureus; details: ref Irschik et al., 1995; J.M. and R.H.E., unpublished; cited from earlier work
[9] = test system: eukaryotic RNAP II; details: cited from earlier work
[10] = biological target: T2, Myx^r RNAP ([Arg345]β′-RNAP) (Escherichia coli, UniProt P0A8T7+P0A8V2, K345R); format: biochemical, E. coli
[11] = biological target: T2, Myx^r RNAP ([Arg345]β′-RNAP)
[12] = biological target: T. thermophilus RNAP holoenzyme (Thermus thermophilus, UniProt Q8RQE8+Q8RQE9); format: biochemical; details: read-out: IC50, inhibition of T. thermophilus RNAP holoenzyme
[13] = test system: Enterobacter cloacae; details: cited from earlier work

Question: What does the source list for `CO[C@H]1/C=C/O[C@@]2(C)Oc3c(C)c(O)c4c(O)c(c(/C=N/N5CCN(C)CC5)c(O)c4c3C2=O)NC(=O)/C(C)=C\C=C\[C@H](C)[C@H](O)[C@@H](C)[C@@H](O)[C@@H](C)[C@H](OC(C)=O)[C@@H]1C` [Rif, rifampicin]?
Answer: MIC [1]: 0.1 µg/mL (≈ 0.122 µM); cross-resistance of Myx^r mutants ([2]; Myx^r mutants (Table 1)): do not exhibit cross-resistance

Question: Which “effect on interaction of RNAP with promoter DNA” value [3] does the source give for `C/C(=C\Cc1ccccc1)CC[C@@]1(O)C[C@H]2C[C@@H](C/C(C)=C/C/C=C/C/C(CC(=O)O)=C\C(=O)O2)O1` [Rip, ripostatin A] here?
Answer: prevents interaction of RNAP with promoter DNA

Question: What about the MIC [4] of the same compound?
Answer: ≤ 1 µg/mL

Question: What about the bacteriocidal activity [5] of the same compound?
Answer: bacteriocidal

Question: And the IC50 [6]?
Answer: ~800 nM

Question: And the “effect on transcription initiation” value [7]?
Answer: inhibits transcription initiation

Question: And the MIC [8]?
Answer: ≤ 1 µg/mL

Question: What about the “inhibition of eukaryotic RNAP II” value [9] of the same compound?
Answer: does not inhibit

Question: With `C/C=C/C/C=C(\C)C(O)CC/C(C)=C/C=C(\C)C(=O)c1c(O)cc([C@H](C)CC/C=C/NC(=O)OC)oc1=O` (stereo partly shown) [Cor, corallopyronin A] as the compound, how does the “effect on interaction of RNAP with promoter DNA” value [3] read?
Answer: prevents interaction of RNAP with promoter DNA

Question: And the bacteriocidal activity [5]?
Answer: bacteriocidal

Question: What about the IC50 [6] of the same compound?
Answer: ~4000 nM

Question: And the MIC [1]?
Answer: 1.6 µg/mL (≈ 3.03 µM)

Question: What about the “effect on transcription initiation” value [7] of the same compound?
Answer: inhibits transcription initiation

Question: And the “inhibition of eukaryotic RNAP II” value [9]?
Answer: does not inhibit

Question: What does the source list for `CCC/C(C)=C/C=C(\C)C(=O)c1c(O)cc([C@H](C)CC/C=C/NC(=O)OC)oc1=O` [Myx, myxopyronin A]?
Answer: inhibition of formation of stable, heparin-resistant RNAP-DNA complex ([3]; fork-junction DNA fragment (lacks positions −11 to +15 of template strand)): does not inhibit; inhibition of formation of stable, heparin-resistant RNAP-DNA complexes ([3]; nontemplate-strand oligonucleotide (positions −21 to +15)): does not inhibit; IC50 ([3]; read-out: IC50, inhibition of formation of stable, heparin-resistant RNAP-promoter open complex, promoter DNA fragment): 800 ± 300 nM; inhibition of transcription with Myx^r RNAP [10]: abrogates inhibition; inhibition of open-complex formation with Myx^r RNAP [11]: abrogates inhibition; IC50 [12]: 20000 nM; bacteriocidal activity [5]: bacteriocidal; IC50 [6]: ~1000 nM; IC50 ([7]; read-out: IC50, inhibition of formation of abortive products, run-off transcription, promoter DNA fragment): 1700 ± 600 nM; MIC [13]: ≤ 12.5 µg/mL; increase in MIC ([2]; all four Myx^r mutants from random mutagenesis (Table S1)): ≥ 2 fold; increase in MIC ([2]; three of four Myx^r mutants from random mutagenesis (Table S1)): ≥ 32 fold; inhibition of eukaryotic RNAP II [9]: does not inhibit
